Reference: US20240215575A1, “METHOD OF PREPARING 1-(2,2-DIMETHYLPROPYL)-CYCLOPROPENE AS SPRAYABLE ETHYLENE ANTAGONIST IN PLANTS AND USES THEREOF” (KYUNG SANG NAM DO, priority 2022, published 2024)
In brackets after ≈: the same amount, converted by molar mass. Where two headings read alike, the source gives them in different places.

Legend:
[1] = cited from earlier work
[2] = tested on: Taechu sweet persimmon fruits; test: 1-DCP spray treatment of Taechu sweet persimmon fruits on the tree, flesh hardness during room temperature storage; assay type: in vivo, sweet persimmon (Taechu variety)
Experimental: In particular, four sweet persimmon trees of the Taechu variety were selected on October 7th at the Sweet Persimmon Research Institute Orchard located in Jinyeong-eup, Gyeongsangnam-do, and the fruits growing on two of these trees (control group) were treated with a solution containing 0.025% wetting agent (Carba, Farmhannong), and the fruits of the other two trees (treatment group) were sprayed with an aqueous emulsion containing 1 mM 1-DCP and 0.025% wetting agent using a manual sprayer. Fruits in each treatment group were harvested on October 24, and measured/observed for changes in flesh hardness after 7 days and 14 days while being stored at room temperature.

[3] = Storage stability of 1-DCP and its cyclodextrin inclusion complex; assay type: physicochemical
banana fruits = test: 1-DCP immersion treatment of immature banana fruit followed by ethylene exposure; assay type: in vivo
Experimental: In particular, immature banana fruits were harvested from a banana farm in Sancheong-gun, Gyeongsangnam-do and transported to the laboratory, and on the same day, the fruits were separated into two groups: the fruits (16) in Group A (control group) were immersed in a 0.025% wetting agent (Carba, FarmHannong) solution not containing 1-DCP, and the fruits (16) in Group B (treatment group) were immersed in a 1 mM 1-DCP aqueous emulsion for 1 second, respectively, to wet the surface with the solution, and then dried at room temperature. Subsequently the next day, half of the fruits (8 each) from groups A and B were divided into two 40 L containers, sealed, and then injected with ethylene gas, thus exposing the fruits to 10 ppm of ethylene for 24 hours. The treated banana fruits were then stored at room temperature and observed for the degree of ripening after 7 days and after 14 days.

For OC[C@H]1O[C@@H]2O[C@H]3[C@H](O)[C@@H](O)[C@@H](O[C@H]4[C@H](O)[C@@H](O)[C@@H](O[C@H]5[C@H](O)[C@@H](O)[C@@H](O[C@H]6[C@H](O)[C@@H](O)[C@@H](O[C@H]7[C@H](O)[C@@H](O)[C@@H](O[C@H]1[C@H](O)[C@H]2O)O[C@@H]7CO)O[C@@H]6CO)O[C@@H]5CO)O[C@@H]4CO)O[C@@H]3CO [a-cyclodextrin, α-cyclodextrin], the solubility in water [1] is given as 140 mg/mL (≈ 144 mM).
For CC(C)(C)CC1=CC1 [1-DCP, 1-(2,2-dimethylpropyl)-cyclopropene], the flesh hardness ([2]; spray of 1 mM 1-DCP aqueous emulsion with 0.025% wetting agent, after 7 days of storage at room temperature) was 19.5 N, the “inhibition of ethylene action” value ([2]; spray treatment, 1 mM or less, Taechu fruits) was “effectively inhibits ethylene action” and the “storage stability (polymerization)” value ([3]; refrigerated conditions) was “polymerization occurred within a few days”. For the same compound, the storage stability ([3]; room temperature) was “storage at room temperature for more than one day was impossible”, the storage stability ([3]; stored in a −40° C. freezer) was “several months or more” and the degree of ripening (banana fruits; 1 mM 1-DCP aqueous emulsion, immersion for 1 second, 10 ppm ethylene for 24 hours, room temperature storage, observed after 7 and 14 days) was “maintained a more immature state than the fruits of Group A up to 14 days”. The “inhibition of ethylene action” value (banana fruits; immersion treatment, 1 mM or less, banana fruits) was “effectively inhibits ethylene action”.
For OC[C@H]1O[C@@H]2O[C@H]3[C@H](O)[C@@H](O)[C@@H](O[C@H]4[C@H](O)[C@@H](O)[C@@H](O[C@H]5[C@H](O)[C@@H](O)[C@@H](O[C@H]6[C@H](O)[C@@H](O)[C@@H](O[C@H]7[C@H](O)[C@@H](O)[C@@H](O[C@H]8[C@H](O)[C@@H](O)[C@@H](O[C@H]1[C@H](O)[C@H]2O)O[C@@H]8CO)O[C@@H]7CO)O[C@@H]6CO)O[C@@H]5CO)O[C@@H]4CO)O[C@@H]3CO [β-cyclodextrin], the solubility in water ([1]; compared to the alpha type) is given as “extremely low solubility in water”.
